Measured values taken from patent US9227953B2, “Crystal form” (Glaxo Group Limited, priority 2011, dated 2016).

Assays:
Type in all cases: physicochemical
Dynamic Vapor Sorption = settings: product of Example 1(d)
Method: The product was characterized in several ways and determined to be the form termed Form 1 rilapladib. It provided an XRPD pattern as represented in FIG. 3, a Raman spectrum as represented in FIG. 4, and a capillary melting point of 116-118° C.

[1] = relative thermodynamic stability of rilapladib crystal forms; settings: compared with other crystalline forms of rilapladib
[2] = chemical stability of the crystal form

hygroscopicity by Dynamic Vapor Sorption (Dynamic Vapor Sorption)	chemical stability [2]	SMILES	thermodynamic stability [1]
non-hygroscopic		COCCN1CCC(N(Cc2ccc(-c3ccc(C(F)(F)F)cc3)cc2)C(=O)Cn2c(SCc3cccc(F)c3F)cc(=O)c3ccccc32)CC1 [Form 1 rilapladib, N-[1-(2-methoxyethyl)-piperidin-4-yl]-2-[2-(2,3-difluorobenzylthio)-4-oxo-4H-quinolin-1-yl]-N-(4′-trifluoromethylbiphenyl-4-ylmethyl)acetamide]	
	very good chemical stability	COCCN1CCC(N(Cc2ccc(-c3ccc(C(F)(F)F)cc3)cc2)C(=O)Cn2c(SCc3cccc(F)c3F)cc(=O)c3ccccc32)CC1 [rilapladib Form 3, N-[1-(2-methoxyethyl)-piperidin-4-yl]-2-[2-(2,3-difluorobenzylthio)-4-oxo-4H-quinolin-1-yl]-N-(4′-trifluoromethylbiphenyl-4-ylmethyl)acetamide]	more thermodynamically stable than Form 1 and Form 2
